In one assay the target is T1, ACAT (Rattus norvegicus, UniProt Q7TQM4).
T1 construct: Rat liver microsomes are used as the source of ACAT; from tissue; host or cells: rat liver microsomes
T1 sequence (Q7TQM4 1-524): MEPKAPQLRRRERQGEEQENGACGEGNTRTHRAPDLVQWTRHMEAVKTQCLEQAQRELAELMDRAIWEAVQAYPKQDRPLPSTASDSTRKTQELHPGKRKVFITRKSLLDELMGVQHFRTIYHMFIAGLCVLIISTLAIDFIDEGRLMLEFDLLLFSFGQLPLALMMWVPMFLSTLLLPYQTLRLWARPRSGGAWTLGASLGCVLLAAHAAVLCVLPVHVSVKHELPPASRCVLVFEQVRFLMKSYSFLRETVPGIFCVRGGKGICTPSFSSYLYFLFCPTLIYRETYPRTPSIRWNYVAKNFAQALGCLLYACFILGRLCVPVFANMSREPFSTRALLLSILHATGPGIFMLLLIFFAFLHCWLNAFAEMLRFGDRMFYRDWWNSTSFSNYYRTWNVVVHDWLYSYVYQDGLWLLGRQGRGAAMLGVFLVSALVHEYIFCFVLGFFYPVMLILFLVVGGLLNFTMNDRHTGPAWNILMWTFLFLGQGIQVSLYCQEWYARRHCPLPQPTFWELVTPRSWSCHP
Description: ACAT Assay (in vitro). Conditions: for inhibition at 10 µM: Conc. 10 µM, negative = apparent stimulation, read-out: ACAT (in vitro) % Inhib. In kind it is biochemical.

For a further assay, the system named is Hyperlipidemic Hamster. Kind of assay: In Vivo Assay of Hypolipidemic Agents Using the Hyperlipidemic Hamster. The following applies: Mesocricetus auratus, po, 168 h, 50 mg/kg once daily oral, 7 days, percent change versus control, negative = lowering. Summed up: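 Test compound in corn oil was given orally once daily for seven days, starting with a 0.5% cholesterol diet, to groups of six hamsters; corn oil alone served as control. Plasma and hepatic lipids were analysed after decapitation. Results are expressed as percent change relative to control.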

Setting [1] is: read-out: % Reduction (in vivo) Cholest. Esters.
[2] abbreviates: read-out: % Reduction (in vivo) Serum Cholest.
Where [3] appears, read: rat liver microsomes, read-out: ACAT (in vitro) IC50.

Where two headings read alike, the source gives them in different places.

As for `CC[C@@H]1C(=O)N(c2ccc(OC)cc2)[C@H]1c1ccc([N+](=O)[O-])cc1` (relative stereo) [Example 1AJ], the inhibition at 10 µM on ACAT was -17%. For the same compound, the change in vivo at 50 mg/kg in the assay on Hyperlipidemic Hamster (setting [1]) and in the assay on Hyperlipidemic Hamster (setting [2]) was 0% each time.
For `CC[C@@]1(CCCc2ccccc2)C(=O)N(c2c(OC)cc(OC)cc2OC)[C@H]1c1ccccc1` (relative stereo) [Example 3D], on ACAT, the inhibition at 10 µM amounted to 42%. For the same compound, the IC50 on ACAT (setting [3]) worked out at 12 µM. Also, the change in vivo at 50 mg/kg with Hyperlipidemic Hamster (setting [1]) and with Hyperlipidemic Hamster (setting [2]) was 0% in each case.
Take `COc1ccc(N2C(=O)[C@H](CCCc3ccccc3)[C@@H]2c2ccsc2)cc1` (relative stereo) [Example 1BJ]: the inhibition at 10 µM at ACAT came to 56%. Further, the change in vivo at 50 mg/kg in the assay with Hyperlipidemic Hamster (setting [1]) and in the assay on Hyperlipidemic Hamster (setting [2]) was 0% each time.
In the case of `CCCCCCCCCC[C@]1(CCCc2ccccc2)C(=O)N(c2ccc(OC)cc2)[C@@H]1c1ccccc1` (relative stereo) [Example 3U], on ACAT, the inhibition at 10 µM was determined as 46%. Also, the change in vivo at 50 mg/kg in the assay on Hyperlipidemic Hamster (setting [1]) and with Hyperlipidemic Hamster (setting [2]) was 0% each time.
Consider `COc1ccc(N2C(=O)[C@H](CCCc3ccccc3)[C@@H]2c2ccc(CO[Si](C)(C)C(C)(C)C)cc2)cc1` (relative stereo) [Example 1AT], for which, on ACAT, 5 µM corresponded to half-maximal inhibition (IC50) and the inhibition at 10 µM was 70%. Besides, the change in vivo at 50 mg/kg in the assay on Hyperlipidemic Hamster (setting [1]) is -28%. Further, the change in vivo at 50 mg/kg in the assay with Hyperlipidemic Hamster (setting [2]) came to 0%.
`CCCCCCCCCC[C@]1(CC)C(=O)N(c2ccc(OC)cc2)[C@H]1c1ccccc1` (stereo in doubt) [Example 3Q]: the inhibition at 10 µM at ACAT was 3%. In addition, the figures for the change in vivo at 50 mg/kg in the assay on Hyperlipidemic Hamster (setting [1]) and with Hyperlipidemic Hamster (setting [2]) were 0% and -6%, respectively.
The corresponding values for `COc1ccc(N2C(=O)[C@](C)(CCc3ccccc3)[C@@H]2c2ccccc2)cc1` (relative stereo) [Example 3I] are 43%, 0% and -9%.
For `COc1ccc([C@@H]2[C@H](CCCc3ccccc3)C(=O)N2c2ccc(O)cc2)cc1` (relative stereo) [Example 15B], in that order: -55%, -18% and 0%.
The corresponding values for `COc1ccc(N2C(=O)[C@@H](CCCc3ccccc3)[C@H]2c2ccc([S+](C)[O-])cc2)cc1` (relative stereo) [Example 17] are 25%, -52% and -17%.
Regarding `COc1ccc(N2C(=O)[C@H](CCCc3ccccc3)[C@H]2c2cccc(OC)c2)cc1` (relative stereo) [Example 5C], on ACAT, the inhibition at 10 µM amounted to 21%. Also, the change in vivo at 50 mg/kg was -24% in the assay with Hyperlipidemic Hamster (setting [1]) and -17% with Hyperlipidemic Hamster (setting [2]).
The corresponding values for `COc1ccc(N2C(=O)[C@@](Cc3ccccc3)(c3ccccc3)[C@@H]2c2ccccc2)cc1` (relative stereo) [Example 1X] are 9%, 0% and -12%.
As for `COc1ccc(N2C(=O)[C@@H](CCCc3ccccc3)[C@H]2c2cccc(OC)c2)cc1` (relative stereo) [Example 1P], the inhibition at 10 µM on ACAT came to 39%. In addition, the change in vivo at 50 mg/kg in the assay with Hyperlipidemic Hamster (setting [1]) was -54%; in the assay on Hyperlipidemic Hamster (setting [2]) it was -19%.
The corresponding values for `CCCCCCCCCC[C@]1(C)C(=O)N(c2ccc(OC)cc2)[C@H]1c1ccccc1` (relative stereo) [Example 3Y] are -33%, 0% and 0%.
As to `COc1ccc([C@@H]2[C@@H](CCOc3ccccc3)C(=O)N2c2ccc(OC)cc2)cc1` (relative stereo) [Example 5X], the inhibition at 10 µM at ACAT is 38%. Besides, the change in vivo at 50 mg/kg in the assay on Hyperlipidemic Hamster (setting [1]) was -39%; with Hyperlipidemic Hamster (setting [2]), 0%.
The corresponding values for `COc1ccc(N2C(=O)[C@@H](CCCc3ccccc3)[C@@H]2c2ccccc2)cc1` (relative stereo) [Example 1C] are 22%, -15% and -6%.
On to `COc1ccc(N2C(=O)[C@H](CCCc3ccccc3)[C@@H]2c2cccc(OC(F)(F)F)c2)cc1` (relative stereo) [Example 1BK], for which the inhibition at 10 µM on ACAT came to 55%. For the same compound, the change in vivo at 50 mg/kg in the assay on Hyperlipidemic Hamster (setting [1]) and with Hyperlipidemic Hamster (setting [2]) was 0% each time.
In the case of `CCOc1ccc(N2C(=O)[C@H](CCCc3ccccc3)[C@@H]2c2ccc(OC)cc2)cc1` (relative stereo) [Example 35B], the inhibition at 10 µM on ACAT is 65%. The change in vivo at 50 mg/kg in the assay on Hyperlipidemic Hamster (setting [1]) is -99%; in the assay on Hyperlipidemic Hamster (setting [2]), -53%.
With `CCCCCCCCCC[C@]1(CC)C(=O)N(c2c(OC)cc(OC)cc2OC)[C@@H]1c1ccccc1` (relative stereo) [Example 3V], the inhibition at 10 µM at ACAT amounted to 60%. Further, the IC50 at ACAT (setting [3]) amounted to 6.5 µM. The change in vivo at 50 mg/kg in the assay with Hyperlipidemic Hamster (setting [1]) and with Hyperlipidemic Hamster (setting [2]) was 0% throughout.
Turning to `COc1ccc(N2C(=O)[C@@H](CCCc3ccccc3)[C@H]2c2ccc(CN3CCOCC3)cc2)cc1` (relative stereo) [Example 19A], the inhibition at 10 µM at ACAT was found to be 64%. The change in vivo at 50 mg/kg is -34% in the assay on Hyperlipidemic Hamster (setting [1]) and -20% in the assay with Hyperlipidemic Hamster (setting [2]).
For `COc1ccc(N2C(=O)[C@H](CCCc3ccccc3)[C@H]2c2ccncc2)cc1` (relative stereo) [Example 1AR], in that order: -41%, -25% and -22%.
For the compound `COc1ccc(N2C(=O)[C@@H](CCCc3ccccc3)[C@@H]2c2cccc(OC(F)(F)F)c2)cc1` (relative stereo) [Example 1BL], the inhibition at 10 µM on ACAT amounted to 42%. Also, the results for the change in vivo at 50 mg/kg in the assay with Hyperlipidemic Hamster (setting [1]) and in the assay on Hyperlipidemic Hamster (setting [2]) were 0% and -10%, respectively.
The corresponding values for `COc1ccc([C@H]2[C@@H](CCCCc3ccccc3)C(=O)N2c2ccc(OC)cc2)cc1` (relative stereo) [Example 1CI] are 26%, -23% and -8%.
The corresponding values for `COc1ccc(N2C(=O)[C@@H](CCCc3ccccc3)[C@@H]2c2ccc(CO)cc2)cc1` (relative stereo) [Example 15] are -6%, -46% and -21%.
`COc1ccc(N2C(=O)[C@](Cc3ccccc3)(c3ccccc3)[C@@H]2c2ccccc2)cc1` (relative stereo) [Example 1Y]: on ACAT, the inhibition at 10 µM was determined as 50%.
For `CC[C@]1(CCCc2ccccc2)C(=O)N(c2c(OC)cc(OC)cc2OC)[C@H]1C=Cc1ccccc1` (relative stereo) [Example 1J], on ACAT, the inhibition at 10 µM worked out at 86%. The IC50 on ACAT (setting [3]) was determined as 3 µM.
As to `CC[C@@H]1C(=O)N(c2ccc(OC)cc2)[C@@H]1c1ccc(N)cc1` (relative stereo) [Example 8], on ACAT, the inhibition at 10 µM is -12%.
On the same count and under the same terms, to `COc1ccc(N2C(=O)[C@H](c3ccccc3)[C@H]2c2ccccc2)cc1` (relative stereo) [Example 1V] belongs 64%.
On to `CC[C@@]1(CCCc2ccccc2)C(=O)N(c2c(OC)cc(OC)cc2OC)[C@H]1C=Cc1ccccc1` (relative stereo) [Example 1I], for which, on ACAT, the inhibition at 10 µM was 81%. Also, the IC50 at ACAT (setting [3]) stood at 4.5 µM.
`COc1ccc(N2C(=O)[C@H](c3ccccc3)[C@@H]2c2ccccc2)cc1` (relative stereo) [Example 4]: the inhibition at 10 µM on ACAT is 16%.
The same measure, in the same setting: to `CC[C@]1(c2ccccc2)C(=O)N(c2ccc(OC)cc2)[C@H]1c1ccccc1` (relative stereo) [Example 1AA] belongs -36%; to `COc1ccc(N2C(=O)[C@H](C(C)C)[C@@H]2c2ccccc2)cc1` (relative stereo) [Example 1W], 9%.
On the same count and under the same terms, to `CC[C@H]1C(=O)N(c2ccc(OC)cc2)[C@H]1c1ccccc1` (relative stereo) [Example 1AB] belongs 17%.
Same read-out and setting: the same measure for `COc1ccc(N2C(=O)[C@@H](C(C)C)[C@@H]2c2ccccc2)cc1` (relative stereo) [Example 5A]: -70%.
On to `CC[C@H]1C(=O)N(c2ccc(OC)cc2)[C@H]1c1ccc([N+](=O)[O-])cc1` (relative stereo) [Example 1AK], for which, at ACAT, the inhibition at 10 µM was -33%.
On the same count and under the same terms, to `COc1ccc(N2C(=O)[C@@H](C)[C@H]2c2ccccc2)cc1` (relative stereo) [Example 1AH] belongs 4%.
The same measure, in the same setting: to `CCCCCCCCCC[C@@]1(CC)C(=O)N(c2ccc(OC)cc2)[C@@H]1c1ccccc1` (stereo in doubt) [Example 3T] belongs -9%; to `CC[C@H]1C(=O)N(c2ccc(OC)cc2)[C@H]1C=Cc1ccccc1` (relative stereo) [Example 1AF], 0%.

Values taken from US5688787A, “Substituted β-lactam compounds useful as hypochlesterolemic agents and processes for the preparation thereof” (priority 1996, dated 1997).
